# EPA's ToxRefDB 2
# Key:
# [1] = tested on: dog; conditions: Subchronic oral toxicity in nonrodent, beagle, Capsule, dose end: 90 day, group: systemic, systemic / clinical chemistry / albumin-globulin ratio / albumin-globulin ratio + systemic / clinical chemistry / cholesterol / cholesterol…
# [2] = tested on: rat; conditions: Multigenerational reproductive toxicity study, other, Oral, Feed, dose end: 2 generation
# [3] = tested on: rat; conditions: Subchronic oral toxicity in rodents, sprague dawley, Feed, dose end: 90 day, group: systemic
# [4] = tested on: mouse; conditions: Carcinogenicity, cd1, Oral, Feed, dose end: 82 week, group: systemic
# [5] = tested on: dog; conditions: Chronic toxicity; beagle; Oral; Capsule; dose end: 52 week; group: systemic; systemic / in life observation / clinical signs / abnormal movements + systemic / in life observation / clinical signs / altered breathing …
# [6] = tested on: mouse; conditions: Subchronic oral toxicity in rodents, cd1, Feed, dose end: 13 week, group: systemic
# [7] = tested on: rat; conditions: Combined chronic toxicity/carcinogenicity, fischer, Oral, Feed, dose end: 24 month, group: systemic
# [8] = tested on: rat; conditions: Subchronic oral toxicity in rodents, sprague dawley, Feed, dose end: 13 week, group: systemic, systemic / in life observation / body weight / body weight + systemic / in life observation / body weight / body weight gain + systemic / in…
# [9] = tested on: rat; conditions: Subchronic oral toxicity in rodents, sprague dawley, Feed, dose end: 3 month, group: systemic, systemic / in life observation / body weight / body weight + systemic / in life observation / body weight / body weight gain
# [10] = tested on: dog; conditions: Subchronic oral toxicity in nonrodent, beagle, Feed, dose end: 16 week, group: systemic, systemic / in life observation / body weight / body weight
# [11] = group: offspring, systemic / in life observation / body weight / offspring (pup) weight
# [12] = group: parental, systemic / in life observation / body weight / body weight + systemic / in life observation / body weight / body weight gain + systemic / …
# [13] = systemic / clinical chemistry / albumin / albumin + systemic / clinical chemistry / cholesterol / cholesterol + systemic / clinical …
# [14] = systemic / in life observation / body weight / body weight gain
# [15] = systemic / clinical chemistry / creatinine / creatinine
# [16] = systemic / organ weight / thyroid gland / absolute + systemic / organ weight / thyroid gland / relative to body weight
smiles,measurement,setting,value
C#CCC1=C(C)C(OC(=O)C2C(C=C(C)C)C2(C)C)CC1=O (centres undefined) [Prallethrin],LEL,[1],10 mg/kg/day
same,LOAEL,[1],10 mg/kg/day
same,NEL,[1],3 mg/kg/day
same,NOAEL,[1],3 mg/kg/day
same,LEL,[2]; [11],156 mg/kg/day
same,LOAEL,[2]; [11],156 mg/kg/day
same,NEL,[2]; [11],31 mg/kg/day
same,NOAEL,[2]; [11],31 mg/kg/day
same,LOAEL,[2]; [12],156 mg/kg/day
same,NEL,[2]; [12],6 mg/kg/day
same,NOAEL,[2]; [12],31 mg/kg/day
same,LEL,"[2]; group: parental, systemic / in life observation / body weight / body weight gain",31 mg/kg/day
same,LOAEL,[3]; [13],230 mg/kg/day
same,NEL,[3]; [13],24 mg/kg/day
same,NOAEL,[3]; [13],79.1 mg/kg/day
same,LEL,[3]; systemic / clinical chemistry / protein / protein + systemic / organ weight / kidney / absolute + systemic / hematology / eosinophils / …,79.1 mg/kg/day
same,LOAEL,[4]; [14],347 mg/kg/day
same,NOAEL,[4]; systemic / in life observation / body weight / body weight gain + systemic / organ weight / liver / nos,68 mg/kg/day
same,LEL,[4]; systemic / in life observation / clinical signs / fur (altered appearance),68 mg/kg/day
same,NEL,[4]; systemic / in life observation / clinical signs / fur (altered appearance) + systemic / organ weight / kidney / nos + systemic / organ …,13 mg/kg/day
same,LEL,[5],5 mg/kg/day
same,LOAEL,[5],5 mg/kg/day
same,NEL,[5],2.5 mg/kg/day
same,NOAEL,[5],2.5 mg/kg/day
same,LEL,[6]; [15],39 mg/kg/day
same,NEL,[6]; [15],< 39 mg/kg/day
same,LOAEL,[6]; systemic / in life observation / body weight / body weight + systemic / in life observation / body weight / body weight gain,1840 mg/kg/day
same,NOAEL,[6]; systemic / in life observation / body weight / body weight + systemic / in life observation / body weight / body weight gain + systemic / …,808 mg/kg/day
same,LOAEL,[7]; [14],83.5 mg/kg/day
same,NOAEL,[7]; systemic / in life observation / body weight / body weight gain + systemic / clinical chemistry / cholesterol / cholesterol + systemic / …,16.3 mg/kg/day
same,LEL,[7]; [16],4 mg/kg/day
same,NEL,[7]; [16],< 4 mg/kg/day
CCc1cccc(C)c1N(C(=O)CCl)[C@@H](C)COC [S-Metolachlor],LEL,[8],150 mg/kg/day
same,LOAEL,[8],150 mg/kg/day
same,NEL,[8],15 mg/kg/day
same,NOAEL,[8],15 mg/kg/day
same,LEL,[9],259 mg/kg/day
same,LOAEL,[9],259 mg/kg/day
same,NEL,[9],23.4 mg/kg/day
same,NOAEL,[9],23.4 mg/kg/day
same,LEL,[10],31.1 mg/kg/day
same,LOAEL,[10],> 62 mg/kg/day
same,NEL,[10],15.1 mg/kg/day
same,NOAEL,[10],≥ 62 mg/kg/day
